From patent US12714718B2, “Treatment of 22Q11.2 deletion syndrome with cannabidiol” (priority 2018, dated 2026)

Assays:
[1] = test system: children and adolescents with 22q11.2 Deletion Syndrome; experiment: Safety and tolerability monitoring, open-label ZYN002 study; format: in vivo, human; conditions: up to 14 weeks
Protocol: (§1) Methodology: This was an open-label study to assess the safety, tolerability and efficacy of CBD administered as ZYN002, a transdermal gel, for the treatment of child and adolescent patients with 22q11.2 deletion syndrome. Male and female patients with 22q11.2 deletion syndrome were treated in Period 1 for 14 weeks with 250 mg and 500 mg of CBD (patients ≤35 kg received 250 mg CBD daily; patients >35 kg received 500 mg CBD daily). For patients with less than a 25% improvement from baseline in the ABC-C irritability subscale, the investigator could increase the total daily dose at Week 6 of treatment. Twenty male and female patients, ages 6 to <18 years, received ZYN002.
Safety Monitoring: Patient safety was monitored at each study visit using standard measures, including physical and neurological exams, examination of skin at application sites for irritation, vital signs, 12-lead ECGs, the C-SSRS, safety laboratory tests, and AE monitoring.
(§2) Each application consisted of one sachet of ZYN002 CBD 4.2% concentration, containing 2.98 g of gel. At Week 6, if the patient had less than a 25% improvement from baseline in the ABC-C irritability subscale, the investigator increased the dose as follows: • Patients who weigh ≤35 kg receiving a total daily dose of 250 mg CBD had their daily dose increased to 500 mg. […]

[2] = test system: children and adolescents with 22q11.2 Deletion Syndrome; experiment: Clinical Global Impression-Improvement (CGI-I), open-label ZYN002 study; format: in vivo, human
Protocol: as §1
Clinical Global Impressions Scale-Improvement: The Clinical Global Impression Scale, Improvement (CGI-I), is commonly used in clinical trials as they allow the clinician to utilize the history from the caregiver and incorporate the score into a clinical rating for the severity of symptoms. CGI-I is a 7-point scale that is used to assess how much the patient's behavioral symptoms associated with 22q11.2 deletion syndrome have improved, or worsened, relative to a baseline assessment at the beginning of the treatment.
as §2, with “mg. Each application consisted of two sachets of ZYN002 CBD 4.2% concentration, containing 2.98 g of gel. • Patients >35 kg received 250 mg CBD applied Q12H (±2 hours); total daily dose of 500 mg CBD.” for “mg.”
(§3) Statistical Methods: Descriptive statistics (mean, median, standard deviation, minimum, and maximum) for continuous data and number (n) and percentage (%) for categorical data were determined for all efficacy and safety parameters.

[3] = test system: children and adolescents with 22q11.2 Deletion Syndrome; experiment: Anxiety, Depression, and Mood Scale (ADAMS), open-label ZYN002 study; format: in vivo, human; conditions: Week 6 and Week 14
Protocol: as §1
Anxiety, Depression, and Mood Scale (ADAMS): The Anxiety, Depression, and Mood Scale was completed by the parent/caregiver, with support from the site staff. The ADAMS was used as a comprehensive assessment of anxiety, depression, and mood among the patients. […]
as §3

[4] = test system: children and adolescents with 22q11.2 Deletion Syndrome; experiment: Aberrant Behavior Checklist-Community (ABC-C), open-label ZYN002 study; format: in vivo, human; conditions: Week 6 and Week 14
Text: Aberrant Behavior Checklist-Community (ABC-C): The Aberrant Behavior Checklist-Community, 2nd Edition, was completed by the parent/caregiver, with support from the site staff. The ABC-C asks responders to rate behaviors from “0—not at all a problem” to “3—the problem is severe in degree” across 58 questions.
Each application consisted of one sachet of ZYN002 CBD 4.2% concentration, containing 2.98 g of gel. […]

[5] = test system: adults with social phobia; conditions: crossover trial; cited from earlier work
children and adults = conditions: in vivo; cited from earlier work
[6] = cited from earlier work
[7] = test system: children and adolescents with 22q11.2 Deletion Syndrome; experiment: Pediatric Anxiety Rating Scale (PARS), open-label ZYN002 study; format: in vivo, human; conditions: Week 14
Protocol: as §1
Pediatric Anxiety Rating Scale (PARS): The PARS is a clinician-rated caregiver interview that covers 61 behaviors related to anxiety (Riddle M A, et al, The Pediatric Anxiety Rating Scale (PARS) Development and Psychometric Properties, J. Am. Acad. Child Adolesc. Psychiatry, 2002, 4(9):1061-1069). The PARS provides broad coverage of separation anxiety, social phobia, and generalized anxiety. […] The interviewer assesses the severity by quantifying the frequency and degree of interference and avoidance in family, school and community settings. Each of seven severity items is scored on a scale of 1 to 5, with 5 being the most severe and frequent. […]

## C=C(C)C1CCC(C)=CC1c1c(O)cc(CCCCC)cc1O (stereo not shown) [CBD, 2-[3-methyl-6-(1-methylethenyl)-2-cyclohexen-1-yl]-5-pentyl-1,3-benzenediol]
[1]
  tolerability of transdermal administration: well tolerated
[2]
  patients being much improved or very much improved (CGI-I): 62.5%
  patients rated by clinicians as improved, much-improved or very much improved (CGI-I): Seventy-five
[2]; Week 6 and Week 14
  CGI-I, majority of patients, in words: clinically meaningful improvements
[3]
  ADAMS total score and all five subscales vs baseline, in words: statistically significant improvements
[4]
  ABC-C all five subscales vs baseline, in words: statistically and clinically meaningful improvements
[5]
  physiological and cognitive indicators of anxiety: significant and clinically meaningful reductions
Children and adults
  tolerability in children and adults: generally well tolerated
[6]
  solubility in water, in words: virtually insoluble in water
[7]
  PARS vs baseline, in words: statistically significant improvements
